From ChEMBL document CHEMBL5316302, “Deciphering Nonbioavailable Substructures Improves the Bioavailability of Antidepressants by Serotonin Transporter” (J Med Chem, 2023)
Calls of active or inactive are those of the source. No cut-off for these calls is given here.

Experiments:
[1] = molecular target: Sodium-dependent serotonin transporter (Homo sapiens, UniProt P31645); experiment: Inhibition of SERT receptor (unknown origin)
[2] = Drug concentration in Sprague-Dawley rat brain at 10 mg/kg, ip measured at 60 min by LC/MS-MS analysis; assay type: ADME, organism-based; conditions: read-out: Ct
[3] = Half life in Sprague-Dawley rat at 1 mg/kg, iv measured upto 24 hrs by LC-MS/MS analysis; assay type: ADME, organism-based; conditions: in vivo
[4] = Volume of distribution at steady state in Sprague-Dawley rat at 1 mg/kg, iv measured upto 24 hrs by LC-MS/MS analysis; assay type: ADME, organism-based; conditions: in vivo, read-out: Vdss
[5] = Ratio of drug concentration in brain to plasma in Sprague-Dawley rat at 10 mg/kg, ip measured at 15 min by LC-MS/MS analysis; assay type: ADME, organism-based; conditions: read-out: BPR
[6] = Volume of distribution at steady state in Beagle dog at 1 mg/kg, iv measured upto 24 hrs by LC-MS/MS analysis; assay type: ADME, organism-based, Canis lupus familiaris; conditions: in vivo, read-out: Vdss
[7] = Oral bioavailability in Sprague-Dawley rat at 2.5 mg/kg measured upto 24 hrs by LC-MS/MS analysis; assay type: ADME, organism-based; conditions: in vivo
[8] = Drug concentration in Sprague-Dawley rat plasma at 10 mg/kg, ip measured at 120 min by LC/MS-MS analysis; assay type: ADME, organism-based
[9] = Half life in Beagle dog at 5 mg/kg, po measured upto 24 hrs by LC-MS/MS analysis; assay type: ADME, organism-based, Canis lupus familiaris; conditions: in vivo
[10] = Cmax in Beagle dog at 5 mg/kg, po measured upto 24 hrs by LC-MS/MS analysis; assay type: ADME, organism-based, Canis lupus familiaris; design: time < 24 hrs, dose 5 mg/kg, route po; conditions: in vivo
[11] = AUC (0 to t) in Beagle dog at 1 mg/kg, iv measured upto 24 hrs by LC-MS/MS analysis; assay type: ADME, organism-based, Canis lupus familiaris; design: dose 1 mg/kg, time < 24 hrs, route iv; conditions: in vivo
[12] = Drug concentration in Sprague-Dawley rat brain at 10 mg/kg, ip measured at 15 min by LC/MS-MS analysis; assay type: ADME, organism-based; conditions: read-out: Ct
Rattus norvegicus [13] = experiment: Antidepressant activity in ip dosed Sprague-Dawley rat assessed as reduction in immobility time measured after 15 mins by forced swim test; assay type: functional, organism-based; conditions: dose 3-10 mg/kg
[14] = AUC (0 to t) in Sprague-Dawley rat at 2.5 mg/kg, po measured upto 24 hrs by LC-MS/MS analysis; assay type: ADME, organism-based; design: dose 2.5 mg/kg, time < 24 hrs, route po; conditions: in vivo
[15] = Cmax in Sprague-Dawley rat at 2.5 mg/kg, po measured upto 24 hrs by LC-MS/MS analysis; assay type: ADME, organism-based; design: dose 2.5 mg/kg, time < 24 hrs, route po; conditions: in vivo
[16] = Ratio of drug concentration in brain to plasma in Sprague-Dawley rat at 10 mg/kg, ip measured at 60 min by LC-MS/MS analysis; assay type: ADME, organism-based; conditions: read-out: BPR
[17] = Half life in Beagle dog at 1 mg/kg, iv measured upto 24 hrs by LC-MS/MS analysis; assay type: ADME, organism-based, Canis lupus familiaris; conditions: in vivo
[18] = Oral bioavailability in Sprague-Dawley rat at 5 mg/kg measured upto 24 hrs by LC-MS/MS analysis; assay type: ADME, organism-based; conditions: in vivo
[19] = Clearance in Sprague-Dawley rat at 1 mg/kg, iv measured upto 24 hrs by LC-MS/MS analysis; assay type: ADME, organism-based; conditions: in vivo; for CL: iv, 1 mg/kg, 24 h
Hypothalamus [20] = experiment: Inhibition of PCA-induced serotonin depletion in Sprague-Dawley rat hypothalamus assessed as recovery of 5-HT concentration at 1 mg/kg, ip by HPLC analysis; assay type: functional, organism-based
[21] = Drug concentration in Sprague-Dawley rat plasma at 10 mg/kg, ip measured at 60 min by LC/MS-MS analysis; assay type: ADME, organism-based
[22] = Clearance in Beagle dog at 1 mg/kg, iv measured upto 24 hrs by LC-MS/MS analysis; assay type: ADME, organism-based, Canis lupus familiaris; conditions: in vivo
[23] = Cmax in Beagle dog at 1 mg/kg, iv measured upto 24 hrs by LC-MS/MS analysis; assay type: ADME, organism-based, Canis lupus familiaris; design: dose 1 mg/kg, time < 24 hrs, route iv; conditions: in vivo
[24] = AUC (0 to t) in Beagle dog at 5 mg/kg, po measured upto 24 hrs by LC-MS/MS analysis; assay type: ADME, organism-based, Canis lupus familiaris; design: dose 5 mg/kg, time < 24 hrs, route po; conditions: in vivo
[25] = Ratio of drug concentration in brain to plasma in Sprague-Dawley rat at 10 mg/kg, ip measured at 120 min by LC-MS/MS analysis; assay type: ADME, organism-based; conditions: read-out: BPR
[26] = AUC (0 to t) in Sprague-Dawley rat at 1 mg/kg, iv measured upto 24 hrs by LC-MS/MS analysis; assay type: ADME, organism-based; design: time < 24 hrs, dose 1 mg/kg, route iv; conditions: in vivo; for AUCt: 24 h
[27] = Drug concentration in Sprague-Dawley rat brain at 10 mg/kg, ip measured at 120 min by LC/MS-MS analysis; assay type: ADME, organism-based; conditions: read-out: Ct
[28] = Half life in Sprague-Dawley rat at 2.5 mg/kg, po measured upto 24 hrs by LC-MS/MS analysis; assay type: ADME, organism-based; conditions: in vivo
Hypothalamus [29] = experiment: Inhibition of PCA-induced serotonin depletion in Sprague-Dawley rat hypothalamus assessed as recovery of 5-HT concentration at 10 mg/kg, ip by HPLC analysis (Rvb= 200 ng/g); assay type: functional
Rattus norvegicus [30] = experiment: Antidepressant activity in Sprague-Dawley rat assessed as reduction in immobility time at 10 mg/kg ip measured after 15 mins by forced swim test; assay type: functional; conditions: 0.25 h
[31] = Cmax in Sprague-Dawley rat at 1 mg/kg, iv measured upto 24 hrs by LC-MS/MS analysis; assay type: ADME, organism-based; design: time < 24 hrs, dose 1 mg/kg, route iv; conditions: in vivo
[32] = Drug concentration in Sprague-Dawley rat plasma at 10 mg/kg, ip measured at 15 min by LC/MS-MS analysis; assay type: ADME, organism-based
Rattus norvegicus [33] = experiment: Antidepressant activity in Sprague-Dawley rat assessed as reduction in immobility time at 3 mg/kg ip measured after 15 mins by forced swim test; assay type: functional; conditions: 0.25 h
Hypothalamus [34] = experiment: Inhibition of PCA-induced serotonin depletion in Sprague-Dawley rat hypothalamus assessed as recovery of 5-HT concentration at 3 mg/kg, ip by HPLC analysis; assay type: functional, organism-based
[35] = Oral bioavailability in human at 2.5 to […]; assay type: ADME, organism-based; conditions: in vivo, dose lower 2.5 mg/kg

Chain of Sodium-dependent serotonin transporter (P31645 whole entry): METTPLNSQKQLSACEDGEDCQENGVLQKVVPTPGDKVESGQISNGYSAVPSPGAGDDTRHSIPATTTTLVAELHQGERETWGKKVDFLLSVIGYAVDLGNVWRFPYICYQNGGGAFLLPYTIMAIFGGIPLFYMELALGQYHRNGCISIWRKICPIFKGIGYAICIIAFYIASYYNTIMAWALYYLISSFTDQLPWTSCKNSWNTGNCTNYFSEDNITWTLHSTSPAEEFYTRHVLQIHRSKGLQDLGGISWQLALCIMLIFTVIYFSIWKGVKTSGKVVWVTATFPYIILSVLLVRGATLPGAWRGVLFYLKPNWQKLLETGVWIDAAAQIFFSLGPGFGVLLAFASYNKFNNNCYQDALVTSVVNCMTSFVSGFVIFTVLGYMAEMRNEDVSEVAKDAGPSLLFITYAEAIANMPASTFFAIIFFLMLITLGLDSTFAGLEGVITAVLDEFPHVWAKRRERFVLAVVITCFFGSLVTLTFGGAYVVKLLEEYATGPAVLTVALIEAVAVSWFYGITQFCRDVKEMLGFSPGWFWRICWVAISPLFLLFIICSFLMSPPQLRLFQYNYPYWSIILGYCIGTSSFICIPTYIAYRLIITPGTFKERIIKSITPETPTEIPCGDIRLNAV

SMILES | IC50 [1] [nM] | half-life [3] [min] | Vd [4] [L/kg] | Vd [6] [L/kg] | bioavailability [7] [%] | half-life [9] [min] | Cmax [10] [ng/mL] | AUCt [11] [ng·h/mL] | AUC(0-t) at 24 h [14] [ng·h/mL] | Cmax [15] [ng/mL] | half-life [17] [min] | bioavailability [18] [%] | CL [19] [L/h/kg] | CL [22] [L/h/kg] | Cmax [23] [ng/mL] | AUC(0-t) at 24 h [24] [ng·h/mL] | AUCt [26] [ng·h/mL] | half-life [28] [min] | Cmax [31] [ng/mL] | further results
N#Cc1ccc2[nH]cc(CCCCN3CCN(c4ncc(-c5ccc(C(N)=O)cc5)cn4)CC3)c2c1 | < 2 | – | – | – | – | – | – | – | – | – | – | – | – | – | – | – | – | – | – | –
COc1ccccc1-c1cnc(N2CCN(CCCCc3c[nH]c4ccc(C#N)cc34)CC2)nc1 | < 2 | – | – | – | – | – | – | – | – | – | – | – | – | – | – | – | – | – | – | –
N#Cc1ccc2[nH]cc(CCCCN3CCN(c4ncc(-c5ccc(F)cc5F)cn4)CC3)c2c1 | 0.58 | 452 | 6.41 | 3.4 | 83.3 | 984 | 794 | 2820 | 2790 | 180 | 263 | 53.5 | 11.6 | 5.14 | 520 | 7540 | 1340 | 437 | 193 | concentration at 1 h [2]: 2240 ng/g; Kp at 0.25 h [5]: 1.82; concentration at 2 h [8]: 935 ng/mL; concentration at 0.25 h [12]: 459 ng/g; Activity (Rattus norvegicus [13]): Dose-Dependent Effect; Kp at 1 h [16]: 3.45; Activity (Hypothalamus [20]): Active; concentration at 1 h [21]: 651 ng/mL; Kp at 2 h [25]: 3.17; concentration at 2 h [27]: 2960 ng/g; Activity (Hypothalamus [29]): 500 ng/g; Time (Rattus norvegicus [30]): <100 s; concentration at 0.25 h [32]: 253 ng/mL
N#Cc1ccc2[nH]cc(CCCCN3CCN(c4ncc(-c5ccc(F)cc5)cn4)CC3)c2c1 | < 2 | – | – | – | – | – | – | – | – | – | – | – | – | – | – | – | – | – | – | –
COc1cc(F)ccc1-c1cnc(N2CCN(CCCCc3c[nH]c4ccc(C#N)cc34)CC2)nc1 | < 2 | – | – | – | – | – | – | – | – | – | – | – | – | – | – | – | – | – | – | –
N#Cc1ccc2[nH]cc(CCCCN3CCN(c4ccc5oc(C(N)=O)cc5c4)CC3)c2c1 [VILAZODONE] | – | 87 | 3.74 | 2.14 | 47.5 | 129 | 454 | 791 | 443 | 173 | 79.2 | 52.5 | – | – | 488 | 2020 | – | 174 | – | concentration at 1 h [2]: 606 ng/g; Kp at 0.25 h [5]: 0.56; Time (Rattus norvegicus [33]): 100 s; concentration at 2 h [8]: 861 ng/mL; concentration at 0.25 h [12]: 190 ng/g; Kp at 1 h [16]: 0.46; clearance ([19]; Sprague-Dawley): 40.2 mL/min/kg; concentration at 1 h [21]: 1330 ng/mL; Kp at 2 h [25]: 0.53; AUC(0-t) at 24 h ([26]; Sprague-Dawley): 409 ng·h/mL; concentration at 2 h [27]: 457 ng/g; Activity (Hypothalamus [29]): 400 ng/g; Activity (Hypothalamus [34]): Active; concentration at 0.25 h [32]: 1330 ng/mL
N#Cc1ccc2[nH]cc(CCCCN3CCN(c4ncc(-c5cccc(C(N)=O)c5)cn4)CC3)c2c1 | 0.35 | 95.4 | 2.33 | 2.13 | 39.2 | 268 | 662 | 2330 | 706 | 241 | 281 | 37.2 | 22.9 | 7.11 | 1100 | 4310 | 722 | 117 | 400 | –
N#Cc1ccc2[nH]cc(CCCCN3CCN(c4ncc(-c5ccc(Cl)cc5)cn4)CC3)c2c1 | 0.32 | 571 | 5.46 | 5.52 | 52.6 | 942 | 820 | 2840 | 2950 | 207 | 1250 | 47.8 | 7.5 | 3.66 | 536 | 6800 | 1870 | 584 | 444 | –
Cc1ccc(Sc2ccccc2N2CCNCC2)c(C)c1 [VORTIOXETINE] | – | – | – | – | – | – | – | – | – | – | – | – | – | – | – | – | – | – | – | bioavailability [35]: 75%
